# Laboratory results taken from publication PMC8770593 (Nature Communications, 2022).
# Where “and” joins values, the source holds several entries; their conditions need not be identical. Equal entries are not always repeated. Where two headings read alike, the source gives them in different places.
# Key:
# [1] = molecular target: T1, α1BARXTAL (stabilized α1BAR with DARPin D12 fusion) (Homo sapiens, UniProt P35368, D191Y/E194V/F334L/G183V/I116T/P349L/S150Y/S168C/S95C/T295M/V124M/V333L); assay: HTRF competition ligand-binding assay on whole transfected HEK293T/17 cells (QAPB tracer)
# T1 construct: deletion of N-terminal residues M1–N34 and intracellular loop three (ICL3) residues K249–L283, and fusion of DARPin D12[43],[68],[69] to residue C350^7.55; expressed in transfected cells; host or cells: HEK293T/17
# [2] = set-up: method as in ref 49 (a number printed in a supplementary file, which may have a reference list of its own: not looked up in the article's list); details: computationally estimated; cited from earlier work
# α1BARXTAL = molecular target: T2, α1BARXTAL (Homo sapiens, UniProt P35368, D191Y/DEL249-283/E194V/F334L/G183V/I116T/P349L/S150Y/S168C/S95C/T295M/V124M/V333L); assay: CPM-based thermostability assay of ligand-bound receptor; details: cyclazosin-bound α1BARXTAL
# T2 construct: deletion of N-terminal residues M1–N34 and intracellular loop three (ICL3) residues K249–L283, and fusion of DARPin D12[43],[68],[69] to residue C350^7.55; MBP (N, cleaved yes); His6-tag (N, cleaved yes); DARPin D12, modified (ΔS1,D2); L3K, G4A, K5R, A13K; thioredoxin A (TrxA) (C, cleaved yes); His10-tag (C, cleaved yes); made in house; host or cells: E. coli BL21 (fhuA2 deletion)
# [3] = molecular target: α1BAR-α2C(YLLY;ECL2) chimera (Homo sapiens, UniProt P35368, A122L/DEL188-193/E186Y/E194Q/E199D/F202W/G179P/I178F/INS181VSLYRQP/K185A/L182D/L314Y/P201T/T198N/V197L/W121Y/W184A); assay: HTRF ligand-binding assay on whole transfected HEK293T/17 cells (QAPB saturation; competition with QAPB tracer)
# Sequence of α1BAR-α2C(YLLY;ECL2) chimera (P35368 with tags, fused parts or gaps with the stated changes): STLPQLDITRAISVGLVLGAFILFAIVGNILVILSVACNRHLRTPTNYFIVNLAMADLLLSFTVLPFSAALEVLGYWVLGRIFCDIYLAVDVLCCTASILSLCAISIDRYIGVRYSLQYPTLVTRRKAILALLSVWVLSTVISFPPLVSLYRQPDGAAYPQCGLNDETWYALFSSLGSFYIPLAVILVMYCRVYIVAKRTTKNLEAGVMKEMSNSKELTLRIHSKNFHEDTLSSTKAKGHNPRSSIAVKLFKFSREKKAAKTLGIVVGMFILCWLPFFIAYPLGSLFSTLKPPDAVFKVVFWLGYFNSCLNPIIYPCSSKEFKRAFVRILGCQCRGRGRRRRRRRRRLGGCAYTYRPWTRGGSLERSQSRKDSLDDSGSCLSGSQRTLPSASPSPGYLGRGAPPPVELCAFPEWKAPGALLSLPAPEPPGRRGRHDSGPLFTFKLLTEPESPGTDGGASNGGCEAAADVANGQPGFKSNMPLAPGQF
# T1 sequence (P35368 with tags, fused parts or gaps with the stated changes): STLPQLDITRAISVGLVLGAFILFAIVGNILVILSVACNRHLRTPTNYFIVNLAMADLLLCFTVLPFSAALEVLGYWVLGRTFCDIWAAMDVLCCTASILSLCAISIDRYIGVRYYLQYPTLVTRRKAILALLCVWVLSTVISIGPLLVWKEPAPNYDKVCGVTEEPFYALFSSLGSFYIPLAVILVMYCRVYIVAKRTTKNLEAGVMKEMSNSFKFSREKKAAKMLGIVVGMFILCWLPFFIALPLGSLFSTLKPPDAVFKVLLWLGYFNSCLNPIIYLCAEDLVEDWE
# T2 sequence (P35368 with tags, fused parts or gaps with the stated changes): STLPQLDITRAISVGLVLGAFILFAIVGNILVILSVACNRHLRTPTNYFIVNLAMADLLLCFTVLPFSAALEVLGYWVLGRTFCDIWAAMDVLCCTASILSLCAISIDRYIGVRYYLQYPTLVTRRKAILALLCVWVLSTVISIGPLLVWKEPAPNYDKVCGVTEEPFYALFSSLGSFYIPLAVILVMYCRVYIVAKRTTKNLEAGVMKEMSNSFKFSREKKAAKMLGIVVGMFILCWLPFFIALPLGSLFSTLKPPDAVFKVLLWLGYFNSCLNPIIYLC
smiles,measurement,setting,value
"COc1cc2nc(N3CCN(C(=O)c4ccco4)[C@H]4CCCC[C@H]43)nc(N)c2cc1OC (relative stereo) [cyclazosin, [4-(4-amino-6,7-dimethoxyquinazolin-2-yl)-cis-octahydroquinoxalin-1-yl] furan-2-ylmethanone]",Ki,"[1]; competition with 2 nM QAPB tracer, whole cells, read-out: Ki",6.17 nM
same,Ki,"[1]; construct α1BARXTAL, competition with Cyclazosin against QAPB tracer, HTRF, one value per experiment date, read-out: Calculated pKi values (converted)",11 nM and 3.94 nM and 5.44 nM
same,pKa,[2],9
same,apparent Tm of the ligand-bound receptor,α1BARXTAL,≈ 71 °C
same,Ki,[3],2.69 nM
